Test results taken from patent US6355799B1, “Substituted benzene compounds, process for their preparation, and herbicidal and defoliant compositions containing them” (ISK Americas Incorporated, priority 1997, dated 2002).

Columns and labels:
Type in all cases: in vivo
[1] = tested on: field corn (Zea mays L., var. Dekalb 535, CORN); assay: Pre-emerge test, crop safety; conditions: rating scale 0-100, 14 days after application
Summary of the method: (§1)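 Fourteen days after spraying, crop and weed injury was graded visually from 0, no effect, to 100, every plant dead. Test substances were dissolved in acetone and applied at 15–1000 g ai/ha with a flat-fan nozzle. Application was either pre-emergence, one day after sowing, or post-emergence at the 2–3 leaf stage.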

[2] = tested on: upland rice (Oryza sp., var. Tebonnet, RICE); assay: Pre-emerge test, crop safety; conditions: rating scale 0-100, 14 days after application
Summary of the method: as §1

[3] = tested on: barnyardgrass (Echinochloa crus-galli, ECHCG); assay: Pre-emerge test, greenhouse herbicide activity screening; conditions: rating scale 0-100, 14 days after application
Summary of the method: as §1

[4] = tested on: green foxtail (Setaria viridis, SETVI); assay: as above; conditions: rating scale 0-100, 14 days after application
Summary of the method: as §1

[5] = tested on: lambsquarters (Chenopodium album, CHEAL); assay: as above; conditions: rating scale 0-100, 14 days after application
Summary of the method: as §1

[6] = tested on: velvetleaf (Abutilon theophrasti, ABUTH); assay: as above; conditions: rating scale 0-100, 14 days after application
Summary of the method: as §1

[7] = tested on: ivyleaf morningglory (Ipomoea hederacea, IPOHE); assay: as above; conditions: rating scale 0-100, 14 days after application
Summary of the method: as §1

[8] = tested on: sicklepod (Cassia obtusifolia, CASOB); assay: as above; conditions: rating scale 0-100, 14 days after application
Summary of the method: as §1

[9] = tested on: large crabgrass (Digitaria sanguinalis, DIGSA); assay: as above; conditions: rating scale 0-100, 14 days after application
Summary of the method: as §1

[10] = tested on: johnsongrass (Sorghum halepense, SORHA); assay: as above; conditions: rating scale 0-100, 14 days after application
Summary of the method: as §1

[11] = tested on: field corn (Zea mays L., var. Dekalb 535, CORN); assay: Post-emerge test, crop safety; conditions: rating scale 0-100 (0 no damage, 100 complete death), 14 days after application
Summary of the method: as §1

[12] = tested on: upland rice (Oryza sp., var. Tebonnet, RICE); assay: Post-emerge test, crop safety; conditions: rating scale 0-100 (0 no damage, 100 complete death), 14 days after application
Summary of the method: as §1

[13] = tested on: barnyardgrass (Echinochloa crus-galli, ECHCG); assay: Post-emerge test, greenhouse herbicide activity screening; conditions: rating scale 0-100 (0 no damage, 100 complete death), 14 days after application
Summary of the method: (§2)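 Sandy loam pots; pre-emerge: sown 1 d pre-spray, surface-watered after, then bottom-watered. Post-emerge: sown 8–21 d before, 2–3 leaf stage, + 0.25% v/v NIS, bottom-watered. Acetone, 187 l/ha track spray, 15–1000 g ai/ha. 0–100 injury score, day 14.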

[14] = tested on: green foxtail (Setaria viridis, SETVI); assay: as above; conditions: rating scale 0-100 (0 no damage, 100 complete death), 14 days after application
Summary of the method: as §2

[15] = tested on: lambsquarters (Chenopodium album, CHEAL); assay: as above; conditions: rating scale 0-100 (0 no damage, 100 complete death), 14 days after application
Summary of the method: as §2

[16] = tested on: velvetleaf (Abutilon theophrasti, ABUTH); assay: as above; conditions: rating scale 0-100 (0 no damage, 100 complete death), 14 days after application
Summary of the method: as §2

[17] = tested on: ivyleaf morningglory (Ipomoea hederacea, IPOHE); assay: as above; conditions: rating scale 0-100 (0 no damage, 100 complete death), 14 days after application
Summary of the method: as §2

[18] = tested on: sicklepod (Cassia obtusifolia, CASOB); assay: as above; conditions: rating scale 0-100 (0 no damage, 100 complete death), 14 days after application
Summary of the method: as §2

[19] = tested on: large crabgrass (Digitaria sanguinalis, DIGSA); assay: as above; conditions: rating scale 0-100 (0 no damage, 100 complete death), 14 days after application
Summary of the method: as §2

[20] = tested on: common ragweed (Ambrosia artemisizfolia L., AMBEL); assay: as above; conditions: rating scale 0-100 (0 no damage, 100 complete death), 14 days after application
Summary of the method: as §2

[21] = tested on: johnsongrass (Sorghum halepense, SORHA); assay: as above; conditions: rating scale 0-100 (0 no damage, 100 complete death), 14 days after application
Summary of the method: as §2

[22] = tested on: redroot pigweed (Amaranthus retroflexus, AMARE); assay: as above; conditions: rating scale 0-100 (0 no damage, 100 complete death), 14 days after application
Summary of the method: as §2

[23] = tested on: redroot pigweed (Amaranthus retroflexus, AMARE); assay: Pre-emerge test, greenhouse herbicide activity screening; conditions: rating scale 0-100, 14 days after application
Summary of the method: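 Compounds in acetone were track-sprayed at 15-1000 g ai/ha (187 l/ha) on sandy loam pots: pre-emerge one day after seeding, post-emerge at 2-3 leaf stage with 0.25% v/v non-ionic surfactant. Phytotoxicity was rated 14 days later on a 0 (no damage) to 100 (complete death) scale.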

Q: Which “Pre-emerge phytotoxicity rating, crop damage CORN” value ([1]; 63 g ai/ha) does the source give for `CCCCCOC(=O)C(C)(Cl)Cc1c(OC)c(Cl)cc(F)c1-n1c(=O)cc(C(F)(F)F)n(C)c1=O` (stereo not shown) [14-37] here?
A: 0

Q: And the “Pre-emerge phytotoxicity rating, crop damage CORN” value ([1]; 250 g ai/ha)?
A: 0

Q: What about the “Pre-emerge phytotoxicity rating, crop damage RICE” value ([2]; 63 g ai/ha) of the same compound?
A: 0

Q: What about the “Pre-emerge phytotoxicity rating, crop damage RICE” value ([2]; 250 g ai/ha) of the same compound?
A: 80

Q: And the “Pre-emerge herbicidal activity, phytotoxicity rating ECHCG” value ([3]; 63 g ai/ha)?
A: 0

Q: What about the “Pre-emerge herbicidal activity, phytotoxicity rating ECHCG” value ([3]; 250 g ai/ha) of the same compound?
A: 99

Q: And the “Pre-emerge herbicidal activity, phytotoxicity rating SETVI” value ([4]; 63 g ai/ha)?
A: 0

Q: What about the “Pre-emerge herbicidal activity, phytotoxicity rating SETVI” value ([4]; 250 g ai/ha) of the same compound?
A: 95

Q: And the “Pre-emerge herbicidal activity, phytotoxicity rating CHEAL” value ([5]; 63 g ai/ha)?
A: 100

Q: And the “Pre-emerge herbicidal activity, phytotoxicity rating CHEAL” value ([5]; 250 g ai/ha)?
A: 100

Q: And the “Pre-emerge herbicidal activity, phytotoxicity rating ABUTH” value ([6]; 63 g ai/ha)?
A: 90

Q: And the “Pre-emerge herbicidal activity, phytotoxicity rating ABUTH” value ([6]; 250 g ai/ha)?
A: 100

Q: And the “Pre-emerge herbicidal activity, phytotoxicity rating IPOHE” value ([7]; 63 g ai/ha)?
A: 0

Q: And the “Pre-emerge herbicidal activity, phytotoxicity rating IPOHE” value ([7]; 250 g ai/ha)?
A: 0

Q: And the “Pre-emerge herbicidal activity, phytotoxicity rating CASOB” value ([8]; 63 g ai/ha)?
A: 0

Q: What about the “Pre-emerge herbicidal activity, phytotoxicity rating CASOB” value ([8]; 250 g ai/ha) of the same compound?
A: 0

Q: And the “Pre-emerge herbicidal activity, phytotoxicity rating DIGSA” value ([9]; 63 g ai/ha)?
A: 0

Q: What about the “Pre-emerge herbicidal activity, phytotoxicity rating DIGSA” value ([9]; 250 g ai/ha) of the same compound?
A: 100

Q: What about the “Pre-emerge herbicidal activity, phytotoxicity rating SORHA” value ([10]; 63 g ai/ha) of the same compound?
A: 0

Q: What about the “Pre-emerge herbicidal activity, phytotoxicity rating SORHA” value ([10]; 250 g ai/ha) of the same compound?
A: 0

Q: And the “Post-emerge phytotoxicity rating CORN (crop damage)” value ([11]; Rate 63 g ai/ha)?
A: 20

Q: What about the “Post-emerge phytotoxicity rating CORN (crop damage)” value ([11]; Rate 250 g ai/ha) of the same compound?
A: 95

Q: What about the “Post-emerge phytotoxicity rating RICE (crop damage)” value ([12]; Rate 63 g ai/ha) of the same compound?
A: 70

Q: And the “Post-emerge phytotoxicity rating RICE (crop damage)” value ([12]; Rate 250 g ai/ha)?
A: 100

Q: And the “Post-emerge Herbicidal Activity, phytotoxicity rating ECHCG” value ([13]; Rate 63 g ai/ha)?
A: 100

Q: What about the “Post-emerge Herbicidal Activity, phytotoxicity rating ECHCG” value ([13]; Rate 250 g ai/ha) of the same compound?
A: 100

Q: And the “Post-emerge Herbicidal Activity, phytotoxicity rating SETVI” value ([14]; Rate 63 g ai/ha)?
A: 90

Q: And the “Post-emerge Herbicidal Activity, phytotoxicity rating SETVI” value ([14]; Rate 250 g ai/ha)?
A: 100

Q: And the “Post-emerge Herbicidal Activity, phytotoxicity rating CHEAL” value ([15]; Rate 63 g ai/ha)?
A: 100

Q: And the “Post-emerge Herbicidal Activity, phytotoxicity rating CHEAL” value ([15]; Rate 250 g ai/ha)?
A: 100

Q: What about the “Post-emerge Herbicidal Activity, phytotoxicity rating ABUTH” value ([16]; Rate 63 g ai/ha) of the same compound?
A: 100

Q: And the “Post-emerge Herbicidal Activity, phytotoxicity rating ABUTH” value ([16]; Rate 250 g ai/ha)?
A: 100

Q: And the “Post-emerge Herbicidal Activity, phytotoxicity rating IPOHE” value ([17]; Rate 63 g ai/ha)?
A: 30

Q: And the “Post-emerge Herbicidal Activity, phytotoxicity rating IPOHE” value ([17]; Rate 250 g ai/ha)?
A: 100

Q: And the “Post-emerge Herbicidal Activity, phytotoxicity rating CASOB” value ([18]; Rate 63 g ai/ha)?
A: 20

Q: And the “Post-emerge Herbicidal Activity, phytotoxicity rating CASOB” value ([18]; Rate 250 g ai/ha)?
A: 50

Q: And the “Post-emerge Herbicidal Activity, phytotoxicity rating DIGSA” value ([19]; Rate 63 g ai/ha)?
A: 80

Q: What about the “Post-emerge Herbicidal Activity, phytotoxicity rating DIGSA” value ([19]; Rate 250 g ai/ha) of the same compound?
A: 100

Q: What about the “Post-emerge Herbicidal Activity, phytotoxicity rating AMBEL” value ([20]; Rate 63 g ai/ha) of the same compound?
A: 100

Q: What about the “Post-emerge Herbicidal Activity, phytotoxicity rating AMBEL” value ([20]; Rate 250 g ai/ha) of the same compound?
A: 100

Q: What about the “Post-emerge Herbicidal Activity, phytotoxicity rating SORHA” value ([21]; Rate 63 g ai/ha) of the same compound?
A: 0

Q: And the “Post-emerge Herbicidal Activity, phytotoxicity rating SORHA” value ([21]; Rate 250 g ai/ha)?
A: 30

Q: What about the “Post-emerge Herbicidal Activity, phytotoxicity rating AMARE” value ([22]; Rate 63 g ai/ha) of the same compound?
A: 100

Q: What about the “Post-emerge Herbicidal Activity, phytotoxicity rating AMARE” value ([22]; Rate 250 g ai/ha) of the same compound?
A: 100

Q: What about the “Pre-emerge herbicidal activity, phytotoxicity rating AMARE” value ([23]; 63 g ai/ha) of the same compound?
A: 100

Q: What about the “Pre-emerge herbicidal activity, phytotoxicity rating AMARE” value ([23]; 250 g ai/ha) of the same compound?
A: 100
